# Source: ChEMBL document CHEMBL3727364, “Resorcinol n-aryl amide compounds, for use as pyruvate dehydrogenase kinase inhibitors” (2015)
# Target: [Pyruvate dehydrogenase (acetyl-transferring)] kinase isozyme 1, mitochondrial (Homo sapiens, UniProt Q15118)
# Assay: Binding affinity to pyruvate dehydrogenase kinase 1 (unknown origin) incubated for 90 mins by VER-00160364 probe based fluorescence polarization assay
# Chain of [Pyruvate dehydrogenase (acetyl-transferring)] kinase isozyme 1, mitochondrial (Q15118 whole entry): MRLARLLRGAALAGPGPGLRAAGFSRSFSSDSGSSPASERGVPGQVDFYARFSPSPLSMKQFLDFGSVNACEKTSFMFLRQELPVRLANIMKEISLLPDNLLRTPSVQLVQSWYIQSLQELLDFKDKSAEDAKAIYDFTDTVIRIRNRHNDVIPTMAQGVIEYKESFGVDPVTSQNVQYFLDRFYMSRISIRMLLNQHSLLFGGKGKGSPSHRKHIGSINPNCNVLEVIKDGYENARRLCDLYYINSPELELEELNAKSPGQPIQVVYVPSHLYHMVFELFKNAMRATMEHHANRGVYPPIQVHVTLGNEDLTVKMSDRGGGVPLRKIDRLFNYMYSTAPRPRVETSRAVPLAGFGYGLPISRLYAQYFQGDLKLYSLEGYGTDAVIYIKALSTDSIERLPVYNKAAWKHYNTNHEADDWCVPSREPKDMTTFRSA
row,Compound,IC50 [nM]
1,O=C(Nc1ccc(N(Cc2ccccc2)C(=O)c2ccc(O)cc2O)cc1)c1cc2ccccc2[nH]1,10000
2,Cc1cc(S(=O)(=O)NCCN(C)C)cnc1-c1ccc(N(Cc2ccsc2)C(=O)c2ccc(O)cc2O)cc1,10
3,Cc1cc2[nH]c(=O)[nH]c2cc1-c1ccc(N(Cc2ccccc2)C(=O)c2ccc(O)cc2O)cc1,10000
4,O=C(NCc1ccccc1)Nc1ccc(N(Cc2ccccc2)C(=O)c2ccc(O)cc2O)cc1,1000
5,CN(C)C(=O)c1ccc(N(Cc2ccccc2)C(=O)c2cc(Cl)c(O)cc2O)cc1,10
6,CSc1nc(-c2ccc(N(Cc3ccccc3)C(=O)c3ccc(O)cc3O)cc2)c2cc[nH]c2n1,1000
7,Cc1cc(S(=O)(=O)N2CCC(F)(F)CC2)cnc1-c1ccc(N(Cc2cccnc2)C(=O)c2ccc(O)cc2O)cc1,10
8,Cc1cc(C(=O)N(Cc2ccccc2)c2ccc(-c3nc(Cl)ncc3C)cc2)c(O)cc1O,100
9,CSc1nc(-c2ccc(N(Cc3ccsc3)C(=O)c3ccc(O)cc3O)cc2)c2cc[nH]c2n1,1000
10,Cc1cc(S(=O)(=O)NCc2cccs2)cnc1-c1ccc(N(Cc2ccccc2)C(=O)c2ccc(O)cc2O)cc1,10
11,Cc1cc(N(Cc2ccccc2)C(=O)c2ccc(O)cc2O)ccc1-c1nc2cc(F)ccc2cc1C,100
12,Cc1cc2ccccc2nc1-c1ccc(N(Cc2cc(F)cc(F)c2)C(=O)c2ccc(O)cc2O)cc1,1000
13,Cc1noc(-c2ccccc2CN(C(=O)c2ccc(O)cc2O)c2ccc(-c3nc4ccccc4cc3C)cc2)n1,10
14,O=C(Nc1ccc(N(Cc2ccccc2)C(=O)c2ccc(O)cc2O)cc1)c1cc2ccccc2s1,10000
15,O=C(c1ccc(O)cc1O)N(Cc1ccsc1)c1ccc(-c2ncnc3ccc(Cl)cc23)cc1,1000
16,O=C(c1ccc(O)cc1O)N(Cc1ccccc1)c1ccccc1,1000
17,CC(c1ccccc1)N(C(=O)c1ccc(O)cc1O)c1ccc(C(=O)N(C)C)cc1 (stereo not given),1000
18,O=C(c1ccc(O)cc1O)N(Cc1ccccc1)c1ccc(-c2ccc(NC3CC3)nn2)cc1,100
19,CN(Cc1cccc2cnccc12)C(=O)c1ccc(N(Cc2ccsc2)C(=O)c2ccc(O)cc2O)cc1,10

row,Compound,IC50 [nM]
1,Cc1cnc(Cl)nc1-c1ccc(N(Cc2ccc(C#N)cc2)C(=O)c2ccc(O)cc2O)cc1,100
2,O=C(c1ccc(O)cc1O)N(Cc1ccsc1)c1ccc(-c2ncnc3ccsc23)cc1,1000
3,Cc1cc(C(=O)N(Cc2ccsc2)c2ccc(C(=O)N(C)C)cc2)c(O)cc1O,100
4,Cc1cc2ccc(F)cc2nc1-c1ccc(N(Cc2ccccc2)C(=O)c2ccc(O)cc2O)cc1F,100
5,CN(C)C(=O)c1ccc(N(Cc2ccc(C(F)(F)F)cc2)C(=O)c2cc(Cl)c(O)cc2O)cc1,100
6,COc1ccc(CN(C)C(=O)c2ccc(N(Cc3cccnc3)C(=O)c3ccc(O)cc3O)cc2)cc1,10
7,Cc1cc(S(=O)(=O)N2CCOCC2)cnc1-c1ccc(N(Cc2cccnc2)C(=O)c2ccc(O)cc2O)cc1,10
8,N#Cc1cc(Cl)nc(-c2ccc(N(Cc3ccsc3)C(=O)c3ccc(O)cc3O)cc2)c1,10000
9,CN(Cc1cccc2cccnc12)C(=O)c1ccc(N(Cc2cccnc2)C(=O)c2ccc(O)cc2O)cc1,100
10,CN(Cc1cccc2ccccc12)C(=O)c1ccc(N(Cc2cccnc2)C(=O)c2ccc(O)cc2O)cc1,10
11,CN(C)C(=O)c1ccc(N(Cc2ccncc2)C(=O)c2cc(Cl)c(O)cc2O)cc1,1000
12,O=C(c1ccc(O)cc1O)N(Cc1ccccc1)c1ccc(-c2nc3ccccc3cc2CO)cc1,10000
13,CN(C)CCN(C)C(=O)c1ccc(N(Cc2ccccc2)C(=O)c2ccc(O)cc2O)cc1,1000
14,Cc1cc(S(=O)(=O)NCc2ccccc2)cnc1-c1ccc(N(Cc2ccsc2)C(=O)c2ccc(O)cc2O)cc1,100
15,Cc1cc2ccccc2nc1-c1ccc(N(Cc2ccccc2)C(=O)c2cc(Cl)c(O)cc2O)cc1,1000
16,Cc1cnc(-c2cccc(F)c2)nc1-c1ccc(N(Cc2ccccc2)C(=O)c2ccc(O)cc2O)cc1,1000
17,COc1ccc(CN(C)C(=O)c2ccc(N(Cc3ccsc3)C(=O)c3cc(C)c(O)cc3O)cc2)cc1,10
18,CN(Cc1ccc2ccccc2c1)C(=O)c1ccc(N(Cc2ccsc2)C(=O)c2ccc(O)cc2O)cc1,1000
19,O=C(c1ccc(O)cc1O)N(Cc1ccsc1)c1ccc(-c2cnc3ccccc3n2)cc1,10000

# Results, then the compound that gave them:
row,IC50 [nM],Compound
1,10,Cc1ccc(CN(C(=O)c2ccc(O)cc2O)c2ccc(-c3nc(C)ncc3C)cc2)cc1
2,10,CC(=O)NCCNS(=O)(=O)c1cnc(-c2ccc(N(Cc3cccnc3)C(=O)c3ccc(O)cc3O)cc2)c(C)c1
3,100,Cc1csc2ncnc(-c3ccc(N(Cc4cccnc4)C(=O)c4ccc(O)cc4O)cc3)c12
4,10,Cc1cccnc1-c1ccc(N(Cc2cccnc2)C(=O)c2cc(Cl)c(O)cc2O)cc1
5,100,CCOc1ccc2nc(-c3ccc(N(Cc4cccnc4)C(=O)c4ccc(O)cc4O)cc3)c(C)cc2c1
6,1000,O=C(c1ccc(O)cc1O)N(Cc1cccnc1)c1ccc(-c2nc3cc(Cl)ccc3o2)cc1
7,100,COc1ccc2nc(-c3ccc(N(Cc4cccnc4)C(=O)c4ccc(O)cc4O)cc3)c(C)cc2c1
8,100,CCc1cnc(C)nc1-c1ccc(N(Cc2ccccc2)C(=O)c2ccc(O)cc2O)cc1
9,1000,COc1ccc(-c2ccc(N(Cc3cccnc3)C(=O)c3ccc(O)cc3O)cc2)c(Cl)c1
10,10,O=C(c1ccc(O)cc1O)N(Cc1cccnc1)c1ccc(-c2nc3ccc(Cl)cc3cc2CO)cc1
11,1000,Cc1cc(-c2ccc(N(Cc3cccnc3)C(=O)c3ccc(O)cc3O)cc2)cnc1Cl
12,1000,CCNc1cc(-c2ccc(N(Cc3cccnc3)C(=O)c3ccc(O)cc3O)cc2)ncn1
13,100,Cc1nc(C(F)(F)F)nc(-c2ccc(N(Cc3ccsc3)C(=O)c3ccc(O)cc3O)cc2)c1C
14,100,O=C(c1ccc(O)cc1O)N(Cc1cccnc1)c1ccc(-c2nc(Cl)nc3[nH]ccc23)cc1
15,1000,Cc1nc(C)c(-c2ccc(N(Cc3cccnc3)C(=O)c3ccc(O)cc3O)cc2)s1
16,1000,Cc1c(Cl)nc(Cl)nc1-c1ccc(N(Cc2ccccc2)C(=O)c2ccc(O)cc2O)cc1
17,100,Cc1cc2ccc(F)cc2nc1-c1ccc(N(Cc2cccnc2)C(=O)c2ccc(O)cc2O)cc1
18,1000,O=C(c1ccc(O)cc1O)N(Cc1cccnc1)c1ccc(-c2nc3ccccc3o2)cc1
19,10000,CNc1nccc(-c2ccc(N(Cc3ccccc3)C(=O)c3ccc(O)cc3O)cc2)n1
20,1000,O=C(c1ccc(O)cc1O)N(Cc1cccnc1)c1ccc(-c2ccc(Cl)nc2)cc1
21,10,Cc1cc(S(=O)(=O)N2CCCCC2)cnc1-c1ccc(N(Cc2cccnc2)C(=O)c2ccc(O)cc2O)cc1
22,100,CCCc1cncnc1-c1ccc(N(Cc2cccnc2)C(=O)c2ccc(O)cc2O)cc1
23,1000,Nc1ccc(-c2ccc(N(Cc3cccnc3)C(=O)c3ccc(O)cc3O)cc2)nn1
24,100,O=C(c1ccc(O)cc1O)N(Cc1cccnc1)c1ccc(-c2nc(C(F)(F)F)nc3ccccc23)cc1
25,100,Cc1cc2cc(F)ccc2nc1-c1ccc(N(Cc2cccnc2)C(=O)c2ccc(O)cc2O)cc1
26,1000,Cc1nc(N(C)C)nc(-c2ccc(N(Cc3cccnc3)C(=O)c3ccc(O)cc3O)cc2)c1C
27,10,COCCN(C)S(=O)(=O)c1cnc(-c2ccc(N(Cc3cccnc3)C(=O)c3ccc(O)cc3O)cc2)c(C)c1
